Test results: patent publication US20240277873A1, “ULTRABRIGHT […] PROBES FOR DETECTION AND IMAGING” (Nanyang Technological University, priority 2021, published 2024)
Like-named read-outs stand apart in the source and are kept apart here. Residues, ends and D or L forms follow the SMILES beside them. *: point of attachment. X1 = COC(=O)/C=C/c1ccc(C2(OC)OOC23C2CC4CC(C2)CC3C4)cc1OCc1ccc(N*)cc1

Key:
[1] = Chemiluminescence and fluorescence changes of probes toward O2•- (KO2): response, selectivity, LOD
Experimental: The chemiluminescence and fluorescence changes of BOPDSu, BTPDSu, MBPDSu and MPDSu (20 μM) were recorded at different concentrations of RONS (40 μM) and other metal ions (100 μM). BOPDSu, BTPDSu, MBPDSu and MPDSu (20 μM) in phosphate buffered saline (PBS) buffer were treated in the presence of different RONS (40 μM), and metal ions (Mg^2+, Ca^2+ or Fe^2+, 100 μM) at 37° C.
The chemiluminescence signals were recorded at different concentrations of KO2 (0, 50, 100, 250, 500 and 1000 nM). Then, the limit of detection (LOD) of BOPDSu, BTPDSu, MBPDSu and MPDSu were calculated by chemiluminescence intensities based on the equation: LOD=3σ/k, where σ is the standard deviation of emission intensity of blank, and k is the slope of plot of emission intensities.

[2] = Chemiluminescence kinetic studies (half-lives, CL emission) of caged probes in the presence of O2•-; assay type: physicochemical; conditions: for CL Emission: caged probe after activation
Experimental: FIG. […]
[…] The chemiluminescent intensities were plotted as a function of time.
[…] The chemiluminescence signal was recorded by the microplate reader to calculate half-lives of BTPDSu at different pHs.

[3] = Chemiluminescence quantum yield in the presence of O2•-; assay type: physicochemical; conditions: probe 20 μM, O2•- 100 μM, PBS (10 mM, pH 7.4, 10% DMSO), 37° C.
Experimental: (§1) The chemiluminescence QYs of BOPDSu, BTPDSu, MBPDSu, and MPDSu (20 μM) were measured in the presence of O2^•- (100 μM) in PBS (10 mM, pH 7.4, 10% DMSO) at 37° C. The fluorescence QYs were determined by using Rhodamine B as a standard dye (QY 36%) in PBS (10 mM, pH 7.4) (X. Zhen et al., ACS Nano 2016, 10, 6400-6409). The fluorescence QY of AMPD was obtained from the literature (O. Green et al., ACS Cent. Sci. 2017, 3, 349-358).

[4] = Stability of BTPDSu at different pHs (UV spectra); assay type: physicochemical; conditions: 20 μM, pH 5-9 buffers with 10% DMSO, 2 h, 37° C.
Experimental: BTPDSu and ABTPD (20 μM) were stored at different pHs (pH 5, 6, 7, 8 and 9) containing 10% DMSO for 2 h. Then, UV spectra of BTPDSu and fluorescence spectra of ABTPD were measured at different pHs.

[5] = Fluorescence quantum yield of activated probes; assay type: physicochemical; conditions: Rhodamine B as standard (QY 36%), PBS (10 mM, pH 7.4)
Experimental: as §1

[6] = obtained from the literature (ACS Cent. Sci. 2017, 3, 349-358); cited from earlier work
[7] = Half-life and CL emission of uncaged BTPD in PBS; assay type: physicochemical; conditions: in PBS (10% DMSO) at 37° C.
Experimental: FIG. 13 depicts the half-lives of BTPDSu (20 μM) and BTPD (20 μM) in pure DMSO upon addition of excess O2^•- (100 μM) and in 10 mM PBS (10% DMSO, pH 7.4) at 37° C., respectively.

[8] = target: T1, NE (Homo sapiens, UniProt P08246); experiment: Chemiluminescence and fluorescence changes of BTPDNe and MPDNe in the presence of NE (response, selectivity, LOD, half-life); assay type: biochemical
T1 sequence (P08246 30-267): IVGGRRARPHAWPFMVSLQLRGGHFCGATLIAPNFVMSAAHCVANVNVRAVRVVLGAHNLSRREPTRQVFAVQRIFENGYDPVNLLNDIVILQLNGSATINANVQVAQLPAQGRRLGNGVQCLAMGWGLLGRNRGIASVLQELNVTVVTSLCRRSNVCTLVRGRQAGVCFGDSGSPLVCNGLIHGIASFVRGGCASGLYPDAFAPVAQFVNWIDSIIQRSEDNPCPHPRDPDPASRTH
Experimental: Chemiluminescence and fluorescence changes of BTPDNe (20 μM) were determined in the presence of NE (0.1 U/ml), other different enzymes (˜0.1 U/mL, APN, ALP, Cas-3, cat B, GGT, β-gal and NTR) in 50 mM Tris, 1 M NaCl, 0.05% (w/v) Brij-35, pH 7.5 at 37° C. after 30 min incubation.
Chemiluminescence and fluorescence changes of BTPDNe and MPDNe (20 μM) in the presence of NE (0.1 U/mL), or other different enzymes (˜0.1 U/mL, APN, ALP, Cas-3, Cat B, GGT, β-gal, NTR, CatG and PR3) were tested after 30 min incubation in 50 mM Tris, 1 M NaCl, 0.05% (w/v) Brij-35, pH 7.5 at 37° C.
To determine the LOD for NE enzyme detection, the chemiluminescence of BTPDNe was recorded in 50 mM Tris, 1 M NaCl, 0.05% (w/v) Brij-35, pH 7.5 at 37° C. with different concentrations of NE (0, 0.05, 0.1, 0.5, 1, and 2 U/ml) for 30 min incubation. Then, initial reaction velocity was calculated.

[9] = Blood test: chemiluminescence after incubation in healthy mouse blood; conditions: 20 μM, 30 min, 100 μL blood
Experimental: BTPDNe (20 μM) and MPDNe (20 μM) were incubated for 30 min in healthy mouse blood (100 μL), respectively. Chemiluminescence intensities were measured by IVIS system bioluminescence with an acquisition time of 60 s.

[10] = test system: neutrophils; experiment: In vitro cell chemiluminescent imaging; assay type: cell-based; conditions: probe 10 μM
Experimental: 3T3 cells and immune cells (neutrophils, DC cells, T-cells and macrophage) (10^4 cells) were seeded into confocal cell culture dishes (dia. 15 mm) and incubated for 24 h. […] After incubation, the medium was removed, and the cells were washed thrice. Chemiluminescence imaging of the cells were recorded on LX71 inverted microscope (Olympus), which was equipped with infinity 3-1 (Lumenera) CCD camera. During imaging, the excitation light was blocked and the images were recorded under an open filter, with an acquisition time of 60 s.

[11] = test system: LPS-treated mice; experiment: Real-time chemiluminescence imaging in LPS-induced peritonitis model; assay type: in vivo; conditions: LPS-treated mice
Experimental: The model was induced by intraperitoneal injection of LPS (15 ng) in 100 μL of PBS or PBS only as a control. Probe BTPDNe (40 μM·Kg^−1) or MPDNe (40 μM·Kg^−1) in PBS (10 mM, pH 7.4) containing 10% DMSO was intraperitoneally injected in mice. Then, chemiluminescent signals at different post-injection timepoints (0, 5, 10, 20, 45 and 60 min) were recorded using IVIS system bioluminescence with acquiring time of 120 s. After 3 h, the peritoneum was flushed with PBS (5 mL)+EDTA (5 mM). After erythrocyte lysis, neutrophils from C57Bl/6 mice were stained with a PE-labeled CD. After treatment with LPS for 3 h, CD11c antibody and an APC-labeled Ly6G antibody were added to the neutrophils, and the neutrophils were analyzed for double-positive events using flow cytometry (BD Biosciences). Data analysis was performed using Flowjo V10. Neutrophils were gated as CD45+CD11b+Ly6G+cells after the exclusion of doublets.
Fluorescence and chemiluminescence in vivo imaging of the probes were measured by an IVIS spectrum imaging system. Chemiluminescence imaging of the cells was recorded on LX71 inverted microscope. Tissue slices were cut by Leica, Germany slicer and imaged by a Nikon ECLIPSE 80i microscope. The images of tissue sections and cells were recorded with a LSM800 confocal laser scanning microscope. The white light was provided by 150 W LED High Bay Thermo Light.

[12] = test system: dorsal skins of mice; experiment: Histopathologic, immunohistochemical and flow cytometry analyses of dorsal skins (IMQ psoriasis model); assay type: in vivo, BALB/c mice
Experimental: The control group was treated with Vaseline (50 mg/d) and the IMQ-treatment group was applied with IMQ cream (60 mg/d, 5%) once a day. […] Probe BTPDNe (10 uM, 1 mM in DMSO) was thoroughly mixed with Aquaphor (˜10 mg) and applied for psoriasis imaging, followed by poly(methyl methacrylate) microneedle treatment for 1 min. Then, chemiluminescent signals at different time-points (0, 3, 5, 10, 15, 30, 45 and 60 min) after probe-treatment were recorded using IVIS system bioluminescence with acquiring time of 180 s. Until the third day, all the mice were sacrificed to collect tissue and blood for further experiments (hematoxylin and eosin (H&E) staining and flow cytometry analysis) as described in Example 11.
The dorsal skin samples were separated and soaked in 4% paraformaldehyde (4% PFA) for 12 h and immersed in 30% sucrose solution. The skin samples were stained by hematoxylin and eosin (H&E). Then, the samples were flash-frozen by liquid nitrogen, immobilized with optimal cutting temperature compound, and section slices ([…]). The thickness of epidermis was observed under a microscope (Nikon ECLIPSE 80i microscope). APC-Ly6G, as a neutrophil marker, was used to stain neutrophil cells and DAPI was applied for cell nucleus staining. The immunofluorescence was observed by Nikon ECLIPSE 80i microscope.
After performing in vivo chemiluminescence imaging of neutrophils using BTPDNe in psoriasis-bearing mice with 2 day IMQ treatment, fresh section slices from dorsal skins were stained with Ly6G. Immunofluorescence imaging of slices with activated BTPDNe in green color was observed upon excitation at 405 nm and emission at 500-550 nm, while red color from Ly6G was observed upon excitation from 633-647 nm and emission at 660 nm. The immunofluorescence imaging was acquired by Nikon ECLIPSE 80i microscope.

Q: Which results are given for “benzothiazole-phenoxyl-dioxetane [BTPDSu]”?
A: LOD against O2•- ([1]; KO2 0-1000 nM, PBS (10 mM, pH 7.4, 10% DMSO), 37° C., LOD=3σ/k): 6.8 nM; chemiluminescence intensity increase after addition of O2•- ([1]; probe 20 μM, O2•- 40 μM for 10 s, PBS pH 7.4, 37° C., at 480 / 520 / 580 / 540 nm): 2960 times; fluorescent signal enhancement upon cleavage by O2•- ([1]; probe 20 μM, PBS (10 mM, pH 7.4, 10% DMSO), 37° C., at ~486 / 532 / 582 / 542 nm): 42.1 folds; chemiluminescence signal after 4 h incubation with O2•- ([2]; BTPDSu 100 μM, O2•- 4 eq., PBS (10 mM, pH 7.4, 10% DMSO), 37° C.): still observable by naked eye; CL Emission ([2]; in PBS (10% DMSO) at 37° C.): 520 nm; CL Emission ([2]; in pure DMSO): 485 nm; ΦCl, chemiluminescence QY [3]: 0.137 einsteins/mol; stability: UV spectra at different pHs [4]: no obvious changes

Q: Which “ΦFl, fluorescence QY of activated probe” value [5] does the source give for `COC(=O)c1ccc(-c2nc3ccccc3o2)c(O)c1` [ABOPD] here?
A: 33.0%

Q: With `COC(=O)/C=C/c1ccc(C(=O)OC)cc1O` [AMPD] as the compound, how does the “ΦFl, fluorescence QY of activated probe” value [6] read?
A: 3.1%

Q: With `COC1(c2ccc(-c3nc4ccccc4s3)c(O)c2)OOC12C1CC3CC(C1)CC2C3` (centres unmarked) [BTPD] as the compound, how does the “CL Emission” value [7] read?
A: ~515 nm

Q: For `COC(=O)c1ccc(-c2nc3ccccc3s2)c(O)c1` [ABTPD], which “ΦFl, fluorescence QY of activated probe” value [5] is on record?
A: 24.1%

Q: With `COC(=O)c1cc(O)c(-c2nc3ccccc3s2)cc1/C=C/c1cc[n+](C)cc1.[I-]` [AMBPD] as the compound, how does the “ΦFl, fluorescence QY of activated probe” value [5] read?
A: 7.5%

Q: Which “selectivity towards NE over other enzymes” value ([8]; APN, ALP, Cas-3, cat B, GGT, furin, β-gal, NTR, PR3, CatG (~0.1 U/mL)) does the source give for `COC(=O)/C=C/c1ccc(C2(OC)OOC23C2CC4CC(C2)CC3C4)cc1OCc1ccc(NC(=O)[C@@H](NC(=O)[C@@H]2CCCN2C(=O)[C@H](C)NC(=O)[C@H](C)NC(C)=O)C(C)C)cc1` (some centres unmarked) [MPDNe, reference compound] (Ac-AAPV-X1) here?
A: high selectivity

Q: What about the “chemiluminescence enhancement after incubation with NE” value ([8]; probe 20 μM, NE 0.1 U/mL, 50 mM Tris, 1 M NaCl, 0.05% Brij-35, pH 7.5, 37° C., 30 min, BTPDNe at 515 nm, MPDNe at 550 nm) of the same compound?
A: 65.1 fold

Q: What about the “chemiluminescence intensities after incubation with healthy mouse blood” value [9] of the same compound?
A: Negligible

Q: What about the “activated chemiluminescence signal in neutrophils, 30 min” value ([10]; incubation 30 min) of the same compound?
A: 56.4 pixels

Q: And the “activated chemiluminescence signal in neutrophils, 1 h” value ([10]; incubation 1 h)?
A: 16.2 pixels

Q: What about the “chemiluminescent signals after 60 min” value ([11]; 60 min post injection) of the same compound?
A: not

Q: What about the “maximum chemiluminescent signal enhancement in peritoneum relative to negative control group” value ([11]; 3 h post LPS, i.p. probe 40 μM·kg^−1) of the same compound?
A: 8.5 fold

Q: For `CC(C)Cn1cnc2c(N)nc3ccccc3c21` [IMQ, Imiquimod], which “population of NE-expressing neutrophils in skins relative to CsA-treated group” value ([12]; day 2, flow cytometry) is on record?
A: 2.62 times

Q: What about the “population of NE-expressing neutrophils in skins relative to control group” value ([12]; day 2, flow cytometry) of the same compound?
A: 2.03 times

Q: What about the “skin thickness and neutrophil (CD11c+, Ly6G+) population / infiltration” value ([12]; dorsal skins, histology and immunohistochemistry, vs control group) of the same compound?
A: increased thickness and neutrophil (CD11c+, Ly6G+) infiltration
